Measurements as given in article PMC10400630, “Resensitizing multidrug-resistant Gram-negative bacteria to carbapenems and colistin using disulfiram” (Communications Biology, 2023).
Positions of bridges follow the written chain, without caps; N, C: chain ends. Non-standard residues stand in square brackets, D forms with d. Residues, ends and D or L forms follow the SMILES beside them. *: point of attachment. Heptanoyl(5-Me) = CCC(C)CCCC(=O)*; Dab = NCC[C@H](N)C(=O)O

Legend:
E. coli ATCC 25922 = system: T1, E. coli ATCC 25922; assay: microbe, parasite or virus in culture; set-up: broth microdilution MIC of antibiotic alone (checkerboard assay); conditions: Escherichia coli, ATCC25922; colistin alone
T1 construct: ATCC 25922
Source text: (§1) The fractional inhibitory concentration index (FICI) value was used to evaluate the drug interaction of two compounds (A and B) and calculated as the sum of FICIA and FICIB. […] To validate the potentiation, we further evaluated these combinations on several types of Gram-negative bacteria, including drug-sensitive strains, MCR-producing Enterobacterales and MBL-positive Enterobacteriaceae. […] These NDM-positive Gram-negative pathogens carry blaNDM-1 or blaNDM-5 gene and are meropenem-resistant with MICs of 16-32 µg/mL. […] To explore the synergistic bactericidal activity of this combination, time-dependent killing curves for different MCR-positive Gram-negative bacteria were also determined.

E. coli G92 (mcr-1) = system: T2, E. coli G92 (mcr-1); assay: microbe, parasite or virus in culture; set-up: broth microdilution MIC of antibiotic alone (checkerboard assay); conditions: Escherichia coli; colistin alone
T2 construct: G92 (mcr-1)
Source text: as §1

E. coli B2 [1] = system: T3, E. coli B2; assay: microbe, parasite or virus in culture; set-up: broth microdilution MIC of antibiotic alone (checkerboard assay); conditions: Escherichia coli, antibiotic alone
T3 construct: B2
Source text: as §1

E. coli CP131 (mcr-3) = system: T4, E. coli CP131 (mcr-3); assay: microbe, parasite or virus in culture; set-up: broth microdilution MIC of antibiotic alone (checkerboard assay); conditions: Escherichia coli; colistin alone
T4 construct: CP131 (mcr-3)
Source text: as §1

E. coli DH5α (PUC19) = system: T5, E. coli DH5α (PUC19); assay: microbe, parasite or virus in culture; set-up: broth microdilution MIC of antibiotic alone (checkerboard assay); conditions: Escherichia coli; colistin alone
T5 construct: DH5α (pUC19)
Source text: as §1

S. enterica ATCC 13076 = system: T6, S. enterica ATCC 13076; assay: microbe, parasite or virus in culture; set-up: broth microdilution MIC of antibiotic alone (checkerboard assay); conditions: Salmonella enterica, ATCC13076; colistin alone
T6 construct: ATCC 13076
Source text: as §1

[2] = system: T7, K. pneumoniae D120 (mcr-8); assay: microbe, parasite or virus in culture; set-up: broth microdilution MIC of antibiotic alone (checkerboard assay); conditions: Klebsiella pneumoniae; colistin alone
T7 construct: D120 (mcr-8)
Source text: as §1

E. coli B2 [3] = system: T3, E. coli B2; assay: microbe, parasite or virus in culture; set-up: checkerboard broth microdilution, antibiotic alone, absorbance at 600 nm; conditions: antibiotic alone, without DSF; for MIC: Escherichia coli, B2
Source text: The fractional inhibitory concentration index (FICI) value was used to evaluate the drug interaction of two compounds (A and B) and calculated as the sum of FICIA and FICIB. […] To validate the potentiation, we further evaluated these combinations on several types of Gram-negative bacteria, including drug-sensitive strains, MCR-producing Enterobacterales and MBL-positive Enterobacteriaceae.

NDM-positive E. coli C3 = assay: microbe, parasite or virus in culture; set-up: MIC of meropenem alone before serial passage (passage 0); conditions: Escherichia coli, read-out: MICs of MEM, - DSF
Description: To learn more about whether the addition of DSF contributes to preventing the development of antibiotic resistance, we carried out the serial passage assays in an NDM- or MCR-positive bacteria after exposure to meropenem/colistin, DSF and their combination. […] The mutation prevention index (MPI) was determined via the equation of MPC/MIC, which represents the opening of the mutant selection window (MSW, concentration range between MIC and MPC). When the MSW is narrower, drug-resistant strains are less likely to develop.

NDM-5 = biological target: T8, NDM-5 (Escherichia coli, UniProt G3K399); assay: purified NDM-[…]) enzyme inhibition assay, absorbance at […] nm; assay type: biochemical
T8 construct: gene blaNDM-5
T8 sequence (G3K399 29-270 limits assumed): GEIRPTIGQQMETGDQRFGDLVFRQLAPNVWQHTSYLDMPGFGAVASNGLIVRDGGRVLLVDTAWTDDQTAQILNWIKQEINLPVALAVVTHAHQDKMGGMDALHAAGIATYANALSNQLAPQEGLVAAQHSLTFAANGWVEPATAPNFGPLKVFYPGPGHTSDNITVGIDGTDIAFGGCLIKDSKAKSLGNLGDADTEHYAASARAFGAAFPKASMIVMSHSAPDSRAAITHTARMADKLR

For `CCC(C)CCCC(=O)N[C@@H](CCN)C(=O)N[C@H](C(=O)N[C@@H](CCN)C(=O)N[C@H]1CCNC(=O)[C@H]([C@@H](C)O)NC(=O)[C@H](CCN)NC(=O)[C@H](CCN)NC(=O)[C@H](CC(C)C)NC(=O)[C@@H](CC(C)C)NC(=O)[C@H](CCN)NC1=O)[C@@H](C)O` (stereo partly drawn) [Colistin] ({Heptanoyl(5-Me)}-[Dab]T[Dab][Dab][Dab][dL]L[Dab][Dab]T; lactam 4-C), the MIC (E. coli ATCC 25922) was 0.5 µg/mL, the MIC (E. coli G92 (mcr-1)) was 4 µg/mL and the MIC (E. coli B2 [1]) was 8 µg/mL. It also gave an MIC (E. coli CP131 (mcr-3)) of 2 µg/mL, an MIC (E. coli DH5α (PUC19)) of 0.25 µg/mL and an MIC (S. enterica ATCC 13076) of 0.125 µg/mL. It also gave an MIC [2] of 4 µg/mL.
In the case of `C[C@H]1c2cccc(O)c2C(=O)C2=C(O)[C@]3(O)C(=O)C(C(N)=O)=C(O)[C@@H](N(C)C)[C@@H]3[C@@H](O)[C@@H]21` [Doxycycline], the MIC (E. coli B2 [3]) is reported as 32 µg/mL.
In the case of `C[C@@H](O)[C@H]1C(=O)N2C(C(=O)O)=C(S[C@@H]3CN[C@H](C(=O)N(C)C)C3)[C@H](C)[C@H]12` [Meropenem], the MIC (E. coli B2 [3]) is reported as 32 µg/mL and the MIC (NDM-positive E. coli C3) is reported as 8 µg/mL.
In the case of `CO[C@H]1/C=C/O[C@@]2(C)Oc3c(C)c(O)c4c(O)c(c(/C=N/N5CCN(C)CC5)c(O)c4c3C2=O)NC(=O)/C(C)=C\C=C\[C@H](C)[C@H](O)[C@@H](C)[C@@H](O)[C@@H](C)[C@H](OC(C)=O)[C@@H]1C` [Rifampicin], the “MIC^a” value (E. coli B2 [3]) is reported as 128 µg/mL.
Work on `CN(C)c1cc(NC(=O)CNC(C)(C)C)c(O)c2c1C[C@H]1C[C@H]3[C@H](N(C)C)C(O)=C(C(N)=O)C(=O)[C@@]3(O)C(O)=C1C2=O` [Tigecycline] yielded an MIC (E. coli B2 [3]) of 0.5 µg/mL.
`CN[C@H](CC(C)C)C(=O)N[C@H]1C(=O)N[C@@H](CC(N)=O)C(=O)N[C@H]2C(=O)N[C@H]3C(=O)N[C@H](C(=O)N[C@H](C(=O)O)c4cc(O)cc(O)c4-c4cc3ccc4O)[C@H](O)c3ccc(c(Cl)c3)Oc3cc2cc(c3O[C@@H]2O[C@H](CO)[C@@H](O)[C@H](O)[C@H]2O[C@H]2C[C@](C)(N)[C@H](O)[C@H](C)O2)Oc2ccc(cc2Cl)[C@H]1O` [Vancomycin] was tested, and the MIC (E. coli B2 [3]) was 64 µg/mL.
With `CCN(CC)C(=S)SSC(=S)N(CC)CC` [disulfiram] the IC50 (NDM-5) was 95.5 µM.
